# Biological target: CBP recombinant proteins (Homo sapiens (Human), UniProt Q92793)
# Assay: Competitive HTRF assay for affinity to CBP recombinant protein
# Format: binding
# Settings: His-tagged CBP 5 nM, biotin-labeled ligand 50 nM, 1% DMSO
# Description: The affinity of the compounds synthesized in the present patert to the CBP recombinant proteins was determined by competitive HTRF method. His-tagged cyclic adenosine monophosphate response element binding protein (CREB-binding protein, CBP) was expressed in Escherichia coli system and further purified. CBP biotinylated ligands were all self-made. The BL21 star (DE3) competert cells transfected with His-tagged CBP protein genes at N-terminal were cultured at 37° C. for 16 h until the OD value was between 0.6 and 0.8, induced by 0.5 mM of IPTG and cultured overnight. The supernatant of cell lysate was purified by a Ni-ion affinity column and a Superdex75 molecular sieve column sequentially. The purity of resulting CBP proteins was 95%. The fluorescent donor reagent MAb Anti 6HIS—Eu cryptate Gold (Cisbio #61HI2KLA), the receptor reagent Streptavidin-XL665 (#610SAXLA) and the detection buffer (#62SDBRDD) required for HTRF were obtained from CISBIO BIOASSAYS (Codolet, France). Tris(2-carboxyethyl)phosphine hydrochloride (TCEP), sodium chloride, adenosine triphosphate (ATP), Tween-20, dimethylsulfoxide (DMSO), bovine serum albumin (BSA) and HEPES buffer were obtained from SIGMA at the highest level commercially available.
# The general procedure of the competitive HTRF assay for the affinity to CBP recombinant proteins is as follows: 0.05% Tween-20 and 1 mM of TCEP were added immediately before the assay, and the assay was performed in a buffer consisting of 0.1 mg/ml BSA, 50 mM of HEPES and 5 mM of NaCl of pH 7.5. 2.5 μL of compound solution in a determination buffer with 4% DMSO and 5 μL of CBP solution in a determination buffer were added to a white low-volume 384-well microtiter plate, incubated at room temperature for 20 min, and then incubated at room temperature for 40 min by adding 2.5 μL of biotin-labeled ligand solution to the determination buffer. The final concentrations of CBP, biotin-labeled ligand and DMSO were 5 nM, 50 nM and 1%, respectively. Then, 5 μL of MAb Anti 6HIS—Eu cryptate Gold and […] of Streptavidin-XL665 in detection buffers from the manufacturer were added to the mixture, and the mixture was incubated for another 60 min. The final concentration of Streptavidin-XL665 was 12.5 nM, and MAb Anti 6HIS—Eu cryptate Gold was diluted according to the final concentration provided by the supplier. The multimode reader Spark from TECAN (Mannedorf, Switzerland) was used to read the plate to detect the homogeneous time-resolved fluorescence intensity of two groups, in which the excitation wavelength was 320 nm and the emission wavelengths were 665 nm and 620 nm. The IC50 value of the inhibitor was obtained by fitting fluorescence intensity ratios at 665 nm/620 nm with respect to the inhibitor concentration in an S-shaped dose-response curve by using Prism 7 (La Jolla, 15 CA).
# Chain of CBP recombinant proteins (Q92793 whole entry): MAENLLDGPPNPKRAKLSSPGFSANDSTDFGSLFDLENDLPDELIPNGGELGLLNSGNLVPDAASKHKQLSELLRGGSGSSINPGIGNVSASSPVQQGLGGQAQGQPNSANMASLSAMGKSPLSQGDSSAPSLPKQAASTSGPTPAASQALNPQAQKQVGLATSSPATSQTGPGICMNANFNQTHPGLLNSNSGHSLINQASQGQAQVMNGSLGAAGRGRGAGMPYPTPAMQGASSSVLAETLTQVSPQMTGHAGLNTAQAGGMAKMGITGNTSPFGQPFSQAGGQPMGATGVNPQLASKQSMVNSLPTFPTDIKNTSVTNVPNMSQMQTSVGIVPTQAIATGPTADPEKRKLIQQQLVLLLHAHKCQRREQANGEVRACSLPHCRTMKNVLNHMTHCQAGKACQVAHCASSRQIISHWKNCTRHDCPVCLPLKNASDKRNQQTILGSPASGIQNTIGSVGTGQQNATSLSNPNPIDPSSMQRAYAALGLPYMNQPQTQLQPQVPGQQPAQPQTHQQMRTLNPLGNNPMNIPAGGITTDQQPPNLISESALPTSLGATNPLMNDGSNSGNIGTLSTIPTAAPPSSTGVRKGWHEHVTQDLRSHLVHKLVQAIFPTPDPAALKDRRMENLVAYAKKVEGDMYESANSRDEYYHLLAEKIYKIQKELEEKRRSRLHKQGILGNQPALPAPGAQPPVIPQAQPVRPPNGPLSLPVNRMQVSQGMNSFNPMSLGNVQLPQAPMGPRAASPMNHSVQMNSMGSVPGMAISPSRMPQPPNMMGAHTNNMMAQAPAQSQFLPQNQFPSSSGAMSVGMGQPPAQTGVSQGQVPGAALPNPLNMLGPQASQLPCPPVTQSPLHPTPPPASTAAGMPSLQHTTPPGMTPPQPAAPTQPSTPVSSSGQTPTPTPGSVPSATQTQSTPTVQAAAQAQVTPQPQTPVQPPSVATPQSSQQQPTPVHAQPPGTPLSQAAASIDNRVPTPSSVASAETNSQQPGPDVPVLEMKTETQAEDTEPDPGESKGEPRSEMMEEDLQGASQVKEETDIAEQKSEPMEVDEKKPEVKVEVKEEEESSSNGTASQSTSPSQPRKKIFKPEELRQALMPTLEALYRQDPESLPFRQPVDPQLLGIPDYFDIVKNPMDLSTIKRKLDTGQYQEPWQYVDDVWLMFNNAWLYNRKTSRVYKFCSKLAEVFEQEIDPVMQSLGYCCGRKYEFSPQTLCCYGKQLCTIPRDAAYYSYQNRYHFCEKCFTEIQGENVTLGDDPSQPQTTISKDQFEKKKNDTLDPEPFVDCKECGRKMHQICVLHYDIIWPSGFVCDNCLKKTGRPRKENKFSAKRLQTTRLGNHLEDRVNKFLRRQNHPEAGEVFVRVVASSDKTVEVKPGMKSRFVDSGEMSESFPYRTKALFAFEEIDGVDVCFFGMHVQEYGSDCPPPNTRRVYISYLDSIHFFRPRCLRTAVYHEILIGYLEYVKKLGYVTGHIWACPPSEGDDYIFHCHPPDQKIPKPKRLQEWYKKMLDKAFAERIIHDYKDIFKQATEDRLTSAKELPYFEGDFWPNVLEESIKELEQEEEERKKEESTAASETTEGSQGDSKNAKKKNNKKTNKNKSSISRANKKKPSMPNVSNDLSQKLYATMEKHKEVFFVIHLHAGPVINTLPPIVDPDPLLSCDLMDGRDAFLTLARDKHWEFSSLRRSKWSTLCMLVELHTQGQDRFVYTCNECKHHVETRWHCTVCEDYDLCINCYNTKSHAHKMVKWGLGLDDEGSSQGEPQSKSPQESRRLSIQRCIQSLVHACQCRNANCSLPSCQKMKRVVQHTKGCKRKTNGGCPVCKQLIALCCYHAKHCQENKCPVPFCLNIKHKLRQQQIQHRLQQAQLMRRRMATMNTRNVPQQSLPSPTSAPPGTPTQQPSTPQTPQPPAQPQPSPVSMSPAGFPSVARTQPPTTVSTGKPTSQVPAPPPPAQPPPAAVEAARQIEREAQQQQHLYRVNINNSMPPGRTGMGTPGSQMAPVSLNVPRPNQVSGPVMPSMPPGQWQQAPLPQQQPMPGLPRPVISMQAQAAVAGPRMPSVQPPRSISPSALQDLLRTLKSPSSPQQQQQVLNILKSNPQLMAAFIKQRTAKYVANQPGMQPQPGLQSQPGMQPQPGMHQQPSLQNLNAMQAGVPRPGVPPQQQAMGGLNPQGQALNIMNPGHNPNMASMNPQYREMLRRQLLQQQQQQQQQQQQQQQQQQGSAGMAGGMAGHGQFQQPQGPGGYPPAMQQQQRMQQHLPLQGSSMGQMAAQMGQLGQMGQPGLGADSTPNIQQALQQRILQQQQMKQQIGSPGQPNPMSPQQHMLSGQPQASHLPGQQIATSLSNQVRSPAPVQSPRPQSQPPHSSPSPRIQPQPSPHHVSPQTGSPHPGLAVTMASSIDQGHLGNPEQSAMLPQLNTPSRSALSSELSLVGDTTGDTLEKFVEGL
structure (smiles),measurement,value
CNC(=O)c1cccc(N2CCCc3cc(-c4cnn(C)c4)c(C(F)F)cc32)n1 [Example 11],IC50,> 1000 nM
"CNC(=O)c1cc2cc(C3CCOCC3)ccc2c(N2CCCc3cc(-c4cnn(C)c4)c(C(F)F)cc32)n1 [Example 21, 1-[7-difluoromethyl-6-(1-methyl-1H-pyrazol-4-yl)-3,4-dihydro-2H-quinolin-1-yl]-6-(tetrahydro-pyran-4-yl)-isoquinoline-3-carboxylic acid methylamide]",IC50,38 nM
"CNC(=O)c1cc2ccccc2c(N2CCCc3cc(-c4ccn(C)n4)c(C(F)F)cc32)n1 [Example 34, 1-[7-difluoro-methyl-6-(1-methyl-1H-pyrazol-3-yl)-3,4-dihydro-2H-quinolin-1-yl]-isoquinoline-3-carboxylic acid methylamide]",IC50,32 nM
"CNC(=O)c1cc2cccnc2c(N2CCCc3cc(-c4cnn(C)c4)c(C(F)F)cc32)n1 [Example 15, 8-[7-difluoro-methyl-6-(1-methyl-1H-pyrazol-4-yl)-3,4-dihydro-2H-quinolin-1-yl]-[1,7] naphthyridine-6-carboxylic acid methylamide]",IC50,7.5 nM
"CNC(=O)c1cc2ccccc2c(N2CCCc3cc(-c4cnn(C)c4)c(C(F)F)cc32)n1 [Example 2, 1-[7-difluoromethyl-6-(1-methyl-1H-pyrazol-4-yl)-3,4-dihydro-2H-quinolin-1-yl]isoquinoline-3-carboxylic acid methylamide]",IC50,19 nM
"CNC(=O)c1cc2cccnc2c(N2CCCc3cc(C4=CCN(C(C)=O)CC4)c(C(F)F)cc32)n1 [Example 43, 8-[6-(1-acetyl-1,2,3,6-tetrahydropyridin-4-yl)-7-difluoromethyl-3,4-dihydro-2H-quinolin-1-yl]-[1,7]naphthyridine-6-carboxylic acid methylamide]",IC50,6.7 nM
"CNC(=O)c1ccc2c(c1)CCCN2c1nc(C(=O)NC)cc2ccccc12 [Example 58, 1-(3-methylcarbamoylisoquinolin-1-yl)-1,2,3,4-tetrahydroquinoline-6-carboxylic acid methylamide]",IC50,100 nM
"CNC(=O)c1cc2ncccc2c(N2CCCc3cc(C4CCN(C(C)=O)CC4)c(C(F)F)cc32)n1 [Example 47, 5-[6-(1-acetylpiperidin-4-yl)-7-difluoro-methyl-3,4-dihydro-2H-quinolin-1-yl]-[1,6] naphthyridine-7-carboxylic acid methylamide]",IC50,31 nM
"CNC(=O)c1cc2ccc(C3CCOC3)cc2c(N2CCCc3cc(-c4cnn(C)c4)c(C(F)F)cc32)n1 (stereo not shown) [Example 19, 1-[7-difluoromethyl-6-(1-methyl-1H-pyrazol-4-yl)-3,4-dihydro-2H-quinolin-1-yl]-7-(tetrahydrofuran-3-yl)-isoquinoline-3-carboxylic acid methylamide]",IC50,6.9 nM
"CNC(=O)c1cc2cc(C3=CCOCC3)ccc2c(N2CCCc3cc(-c4cnn(C)c4)c(C(F)F)cc32)n1 [Example 20, 1-[7-difluoromethyl-6-(1-methyl-1H-pyrazol-4-yl)-3,4-dihydro-2H-quinolin-1-yl]-6-(3,6-dihydro-2H-pyran-4-yl)-isoquino-line-3-carboxylic acid methylamide]",IC50,18 nM
"CNC(=O)c1cc2cc(Cl)cnc2c(N2CCCc3cc(C4CCN(C(C)=O)CC4)c(C(F)F)cc32)n1 [Example 50, 8-[6-(1-acetylpiperidin-4-yl)-7-difluoro-methyl-3,4-dihydro-2H-quinolin-1-yl]-3-chloro-[1,7] naphthyridine-6-carboxylic acid methylamide]",IC50,54 nM
CNC(=O)c1cc2ccccc2c(N2CCCc3cc(C4=CCNCC4)c(C(F)F)cc32)n1 [Example 42],IC50,50 nM
"CNC(=O)c1cc2cc(C3=CCOC3)ccc2c(N2CCCc3cc(-c4cnn(C)c4)c(C(F)F)cc32)n1 [Example 22, 1-[7-difluoromethyl-6-(1-methyl-1H-pyrazol-4-yl)-3,4-dihydro-2H-quinolin-1-yl]-6-(2,5-dihydro-furan-3-yl)-isoquinoline-3-carboxylic acid methylamide]",IC50,22 nM
